From patent publication US9346798B2, “Dihydrobenzoxazine and tetrahydroquinoxaline sodium channel inhibitors” (AMGEN INC., priority 2012, dated 2016) come the findings set out here.

Type in all cases: cell-based
Series [1] concerns the target Nav 1.5 (Homo sapiens (Human), UniProt Q14524). In words: Nav 1.5 in vitro assay, IonWorks Quattro (IWQ) population patch-clamp. The following applies: HEK 293 cells stably transfected with Nav 1.5; 26th pulse to -20 mV. (The patch-clamp technique gives a direct electrical read-out from membranes.)
The target in series [2] is T1, Nav 1.7 (Homo sapiens (Human), UniProt Q15858). The experiment in a line: Nav 1.7 in vitro PX assay, PatchXpress whole cell voltage clamp. The settings on record: HEK 293 cells stably transfected with human Nav1.7; for IC50: partially inactivated state (20 to 50% inactivation); for inhibition at 4.9 µM: HEK293, values marked *, read-out: Nav 1.7 PX percent inhibition at 4.9 μM. Summed up: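 Partially inactivated channels (20–50% inactivation at holding potential) were probed on automated patch clamp in stably transfected HEK293 cells, stepping to −10 mV for 20 msec every 10 s (0.1 Hz).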

Series [3] concerns the target T1, Nav 1.7. In words: Nav 1.7 in vitro assay, IonWorks Quattro (IWQ) population patch-clamp. The settings on record: HEK 293 cells stably transfected with Nav 1.7; 26th pulse to -20 mV.

Each structure is given as a SMILES string.

Sequence of Nav 1.5 (Q14524 whole entry): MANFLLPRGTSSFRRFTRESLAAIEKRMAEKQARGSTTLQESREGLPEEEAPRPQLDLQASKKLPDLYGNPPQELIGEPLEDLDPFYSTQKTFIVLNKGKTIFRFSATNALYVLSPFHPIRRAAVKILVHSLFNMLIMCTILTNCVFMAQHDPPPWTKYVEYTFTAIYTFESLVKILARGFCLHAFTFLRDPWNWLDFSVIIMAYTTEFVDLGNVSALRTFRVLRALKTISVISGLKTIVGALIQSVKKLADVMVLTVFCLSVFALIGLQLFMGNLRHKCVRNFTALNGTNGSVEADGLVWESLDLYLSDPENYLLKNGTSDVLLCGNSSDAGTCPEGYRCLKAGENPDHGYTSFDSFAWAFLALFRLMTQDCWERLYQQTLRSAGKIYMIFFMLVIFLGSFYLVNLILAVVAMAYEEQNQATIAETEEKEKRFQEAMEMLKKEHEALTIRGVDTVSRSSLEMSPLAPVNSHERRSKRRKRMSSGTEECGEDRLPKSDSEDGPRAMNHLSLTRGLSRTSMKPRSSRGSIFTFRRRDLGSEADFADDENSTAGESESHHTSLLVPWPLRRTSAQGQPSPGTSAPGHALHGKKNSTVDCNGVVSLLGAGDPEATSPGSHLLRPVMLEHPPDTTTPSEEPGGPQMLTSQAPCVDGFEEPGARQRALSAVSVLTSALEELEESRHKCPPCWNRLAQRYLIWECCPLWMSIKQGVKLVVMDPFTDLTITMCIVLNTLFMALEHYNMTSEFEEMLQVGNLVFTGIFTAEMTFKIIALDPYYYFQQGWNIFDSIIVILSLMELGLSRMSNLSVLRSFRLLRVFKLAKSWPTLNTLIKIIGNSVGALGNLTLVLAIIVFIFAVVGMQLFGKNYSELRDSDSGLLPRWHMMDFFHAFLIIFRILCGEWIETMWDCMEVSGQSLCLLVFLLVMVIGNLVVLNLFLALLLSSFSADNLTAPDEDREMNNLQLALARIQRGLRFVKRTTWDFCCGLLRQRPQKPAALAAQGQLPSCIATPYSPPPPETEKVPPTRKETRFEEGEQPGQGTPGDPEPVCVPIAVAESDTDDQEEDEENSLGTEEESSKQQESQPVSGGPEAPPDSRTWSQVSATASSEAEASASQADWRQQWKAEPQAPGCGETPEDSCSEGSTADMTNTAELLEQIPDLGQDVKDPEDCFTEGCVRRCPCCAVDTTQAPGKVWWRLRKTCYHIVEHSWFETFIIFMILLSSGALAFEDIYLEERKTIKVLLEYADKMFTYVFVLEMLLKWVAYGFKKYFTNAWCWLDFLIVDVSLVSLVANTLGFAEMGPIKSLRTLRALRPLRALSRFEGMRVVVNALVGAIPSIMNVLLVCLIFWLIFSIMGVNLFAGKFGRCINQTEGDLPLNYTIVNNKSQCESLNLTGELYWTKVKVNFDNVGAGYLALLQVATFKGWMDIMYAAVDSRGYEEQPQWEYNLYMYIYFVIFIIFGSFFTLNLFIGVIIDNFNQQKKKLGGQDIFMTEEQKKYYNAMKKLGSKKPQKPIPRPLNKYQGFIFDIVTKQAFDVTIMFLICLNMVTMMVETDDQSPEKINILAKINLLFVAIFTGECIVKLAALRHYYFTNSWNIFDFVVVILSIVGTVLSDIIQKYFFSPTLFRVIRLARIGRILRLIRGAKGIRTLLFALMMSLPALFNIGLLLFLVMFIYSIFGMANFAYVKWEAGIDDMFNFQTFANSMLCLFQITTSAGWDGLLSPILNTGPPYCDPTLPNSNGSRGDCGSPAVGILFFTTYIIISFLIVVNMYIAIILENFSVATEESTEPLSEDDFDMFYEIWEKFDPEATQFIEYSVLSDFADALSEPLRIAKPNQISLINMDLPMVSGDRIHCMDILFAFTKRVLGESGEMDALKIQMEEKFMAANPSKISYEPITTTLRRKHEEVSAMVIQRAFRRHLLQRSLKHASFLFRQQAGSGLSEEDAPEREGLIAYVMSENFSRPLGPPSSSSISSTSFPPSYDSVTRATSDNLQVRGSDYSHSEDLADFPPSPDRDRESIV
T1 sequence (Q15858 whole entry): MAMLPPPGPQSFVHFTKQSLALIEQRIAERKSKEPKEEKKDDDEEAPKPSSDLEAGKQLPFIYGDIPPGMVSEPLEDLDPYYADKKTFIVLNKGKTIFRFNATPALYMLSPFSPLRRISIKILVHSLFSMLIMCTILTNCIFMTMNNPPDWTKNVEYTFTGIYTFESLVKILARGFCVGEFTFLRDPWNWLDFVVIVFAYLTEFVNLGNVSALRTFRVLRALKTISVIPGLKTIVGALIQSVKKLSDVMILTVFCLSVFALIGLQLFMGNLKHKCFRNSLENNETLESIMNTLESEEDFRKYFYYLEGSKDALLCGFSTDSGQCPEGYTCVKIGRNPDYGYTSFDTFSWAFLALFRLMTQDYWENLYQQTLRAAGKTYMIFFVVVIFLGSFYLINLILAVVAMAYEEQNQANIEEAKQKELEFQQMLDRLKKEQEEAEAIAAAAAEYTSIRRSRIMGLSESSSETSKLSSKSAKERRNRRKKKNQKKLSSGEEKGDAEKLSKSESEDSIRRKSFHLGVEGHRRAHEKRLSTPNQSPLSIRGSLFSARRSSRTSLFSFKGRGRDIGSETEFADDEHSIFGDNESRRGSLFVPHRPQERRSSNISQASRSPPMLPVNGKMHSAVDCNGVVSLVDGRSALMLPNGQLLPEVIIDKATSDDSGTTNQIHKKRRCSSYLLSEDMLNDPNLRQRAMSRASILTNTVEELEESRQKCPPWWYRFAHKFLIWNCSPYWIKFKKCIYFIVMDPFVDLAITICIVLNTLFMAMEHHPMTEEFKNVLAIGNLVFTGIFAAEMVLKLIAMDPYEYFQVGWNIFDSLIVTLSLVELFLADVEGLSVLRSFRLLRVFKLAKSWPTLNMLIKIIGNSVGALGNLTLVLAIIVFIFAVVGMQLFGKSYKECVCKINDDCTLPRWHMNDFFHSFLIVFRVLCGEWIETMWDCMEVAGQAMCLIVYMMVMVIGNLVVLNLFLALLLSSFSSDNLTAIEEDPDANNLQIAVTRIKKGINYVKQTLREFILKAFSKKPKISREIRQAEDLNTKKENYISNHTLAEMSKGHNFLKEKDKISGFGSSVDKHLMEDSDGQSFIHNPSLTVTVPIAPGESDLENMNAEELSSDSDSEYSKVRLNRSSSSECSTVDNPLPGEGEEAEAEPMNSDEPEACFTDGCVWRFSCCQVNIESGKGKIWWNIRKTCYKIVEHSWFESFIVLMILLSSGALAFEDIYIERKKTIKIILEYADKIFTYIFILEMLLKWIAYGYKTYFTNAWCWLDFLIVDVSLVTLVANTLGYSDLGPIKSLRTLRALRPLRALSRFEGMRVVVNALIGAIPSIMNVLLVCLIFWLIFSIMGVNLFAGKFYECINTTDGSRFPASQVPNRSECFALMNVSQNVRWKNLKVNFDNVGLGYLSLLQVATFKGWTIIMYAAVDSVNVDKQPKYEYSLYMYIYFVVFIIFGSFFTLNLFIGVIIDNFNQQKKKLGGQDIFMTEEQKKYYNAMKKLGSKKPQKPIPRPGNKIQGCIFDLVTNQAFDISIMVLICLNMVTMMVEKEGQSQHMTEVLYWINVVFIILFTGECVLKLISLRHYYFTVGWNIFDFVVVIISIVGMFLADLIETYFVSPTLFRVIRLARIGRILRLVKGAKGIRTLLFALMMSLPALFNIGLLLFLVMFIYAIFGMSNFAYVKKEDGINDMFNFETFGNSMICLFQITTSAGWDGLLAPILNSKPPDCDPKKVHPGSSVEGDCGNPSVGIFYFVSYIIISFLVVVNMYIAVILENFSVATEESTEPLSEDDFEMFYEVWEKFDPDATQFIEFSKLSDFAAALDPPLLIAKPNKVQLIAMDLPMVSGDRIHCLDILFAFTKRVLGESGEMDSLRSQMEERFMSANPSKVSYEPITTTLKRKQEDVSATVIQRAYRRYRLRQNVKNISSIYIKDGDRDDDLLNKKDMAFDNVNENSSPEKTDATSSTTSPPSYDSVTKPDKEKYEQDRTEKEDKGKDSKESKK

One may read the IC50 as the concentration needed to halve the response being measured. Turning to `Cc1ccc(C#N)c(N2CCOc3cc(S(=O)(=O)Nc4nccs4)ccc32)c1` [Example 194, 4-(2-Cyano-5-Methylphenyl)-N-(Thiazol-2-Yl)-3,4-Dihydro-2H-Benzo[B][1,4]Oxazine-7-Sulfonamide], the values for the concentration for half-maximal inhibition (IC50) in series [1], in series [2] and in series [3] were 3590 nM, 1370 nM and 163 nM, respectively.

As to `Cc1cc(Cl)ccc1N1CCOc2cc(S(=O)(=O)Nc3nccs3)ccc21` [Example 195, 4-(4-Chloro-2-Methylphenyl)-N-(Thiazol-2-Yl)-3,4-Dihydro-2H-Benzo[B][1,4]Oxazine-7-Sulfonamide], the IC50 was > 10000 nM in series [1], 1100 nM in series [2] and 233 nM in series [3].

As to `Cc1cc(C(F)(F)F)ccc1N1CCOc2cc(S(=O)(=O)Nc3nccs3)ccc21` [Example 196, 4-(2-Methyl-4-(Trifluoromethyl)Phenyl)-N-(Thiazol-2-Yl)-3,4-Dihydro-2H-Benzo[B][1,4]Oxazine-7-Sulfonamide], the figures for the IC50 in series [1], in series [2] and in series [3] were 5700 nM, 898 nM and 396 nM, respectively.

For orientation: inhibition means the change of the read-out against control, counted positive when it falls. On to `O=C(Oc1ccc([N+](=O)[O-])cc1)N1CCOc2cc(S(=O)(=O)Nc3nccs3)ccc21` [Example 197, 4-nitrophenyl 7-(N-(thiazol-2-yl)sulfamoyl)-2H-benzo[b][1,4]oxazine-4(3 H)-carboxylate], for which the IC50 is > 10000 nM in series [1] and 2530 nM in series [3]. Besides, the inhibition at 4.9 µM in series [2] was 27.8%.

Take `N#Cc1cc(-c2ccccc2F)ccc1N1CCOc2cc(S(=O)(=O)Nc3nccs3)ccc21` [Example 198, 4-(3-cyano-2′-fluoro-[1,1′-biphenyl]-4-yl)-N-(thiazol-2-yl)-3,4-dihydro-2H-benzo[b][1,4]oxazine-7-sulfonamide]: the IC50 in series [1] turned out to be 1880 nM; in series [2], 339 nM; in series [3], 627 nM.

As for `N#Cc1cc(-c2ccc(F)cc2)ccc1N1CCOc2cc(S(=O)(=O)Nc3nccs3)ccc21` [Example 199, 4-(3-Cyano-4′-Fluoro-[1,1′-Biphenyl]-4-Yl)-N-(Thiazol-2-Yl)-3,4-Dihydro-2H-Benzo[B][1,4]Oxazine-7-Sulfonamide], the IC50 was determined as 1220 nM in series [1], 387 nM in series [2] and 469 nM in series [3].

Take `N#Cc1cc(-c2cccc(F)c2)ccc1N1CCOc2cc(S(=O)(=O)Nc3nccs3)ccc21` [Example 200, 4-(3-Cyano-3′-Fluoro-[1,1′-Biphenyl]-4-Yl)-N-(Thiazol-2-Yl)-3,4-Dihydro-2H-Benzo[B][1,4]Oxazine-7-Sulfonamide]: the IC50 in series [1] came to 854 nM; in series [2], 150 nM; in series [3] it was 144 nM.

As for `COc1cc(-c2cccc(F)c2)ccc1N1CCOc2cc(S(=O)(=O)Nc3nccs3)ccc21` [Example 201, 4-(3′-Fluoro-3-Methoxy-[1,1′-Biphenyl]-4-Yl)-N-(Thiazol-2-Yl)-3,4-Dihydro-2H-Benzo[B][1,4]Oxazine-7-Sulfonamide], the results for the IC50 in series [1], in series [2] and in series [3] were 4830 nM, 773 nM and 143 nM, respectively.

As for `CC(C)c1ccc(N2CCOc3cc(S(=O)(=O)Nc4nccs4)ccc32)c(C#N)c1` [Example 202, 4-(2-cyano-4-isopropylphenyl)-N-(thiazol-2-yl)-3,4-dihydro-2H-benzo[b][1,4]oxazine-7-sulfonamide], the IC50 amounted to 686 nM in series [1], 428 nM in series [2] and 93.5 nM in series [3].

Consider `CCc1ccc(N2CCOc3cc(S(=O)(=O)Nc4nccs4)ccc32)c(C#N)c1` [Example 203, 4-(2-Cyano-4-Ethylphenyl)-N-(Thiazol-2-Yl)-3,4-Dihydro-2H-Benzo[B][1,4]Oxazine-7-Sulfonamide], for which the IC50 was 1090 nM in series [1], 469 nM in series [2] and 87.5 nM in series [3].

`O=S(=O)(Nc1nccs1)c1ccc2c(c1)OCCN2c1ccc(C(F)(F)F)cc1C(O)CO` (stereo not drawn) [Example 204, 4-(2-(1,2-dihydroxyethyl)-4-(trifluoromethyl)phenyl)-N-(thiazol-2-yl)-3,4-dihydro-2H-benzo[b][1,4]oxazine-7-sulfonamide]: the IC50 came out at 637 nM in series [1], 343 nM in series [2] and 47.5 nM in series [3].

With `COc1ccccc1N1CCOc2cc(S(=O)(=O)Nc3nccs3)ccc21` [Example 205, 4-(2-methoxyphenyl)-N-(thiazol-2-yl)-3,4-dihydro-2H-benzo[b][1,4]oxazine-7-sulfonamide], the values for the IC50 in series [1], in series [2] and in series [3] were > 10000 nM, 382 nM and 38 nM, respectively.

As to `O=S(=O)(Nc1nccs1)c1ccc2c(c1)OCCN2c1ccc(C(F)(F)F)cc1CO` [Example 206, 4-(2-(hydroxymethyl)-4-(trifluoromethyl)phenyl)-N-(thiazol-2-yl)-3,4-dihydro-2H-benzo[b][1,4]oxazine-7-sulfonamide], the IC50 was 1140 nM in series [1], 174 nM in series [2] and 31.5 nM in series [3].

For `O=S(=O)(Nc1nccs1)c1ccc2c(c1)OCCN2c1ccc(Cl)cc1CC(O)CO` (stereo not drawn) [Example 210, 4-(4-Chloro-2-(2,3-Dihydroxypropyl)Phenyl)-N-(Thiazol-2-Yl)-3,4-Dihydro-2H-Benzo[B][1,4]Oxazine-7-Sulfonamide], the results for the IC50 in series [1], in series [2] and in series [3] were 6110 nM, 226 nM and 12.5 nM, respectively.

Consider `O=S(=O)(Nc1nccs1)c1ccc2c(c1)OCCN2c1ccc(C(F)(F)F)cc1CCO` [Example 211, 4-(2-(2-Hydroxyethyl)-4-(Trifluoromethyl)Phenyl)-N-(Thiazol-2-Yl)-3,4-Dihydro-2H-Benzo[B][1,4]Oxazine-7-Sulfonamide], for which the IC50 in series [1] is 471 nM; in series [2] it was 229 nM; in series [3], 5.5 nM.

Regarding `N#Cc1cc(C(F)(F)F)ccc1N1CCOc2cc(S(=O)(=O)Nc3nccs3)c(Cl)cc21` [Example 212, 6-Chloro-4-(2-Cyano-4-(Trifluoromethyl)Phenyl)-N-(Thiazol-2-Yl)-3,4-Dihydro-2H-Benzo[B][1,4]Oxazine-7-Sulfonamide], the IC50 in series [1] came to 736 nM; in series [2], 373 nM; in series [3], 21.3 nM.

In the case of `COc1nc(C(F)(F)F)ccc1N1CCOc2cc(S(=O)(=O)Nc3nccs3)ccc21` [Example 214, 4-(2-Methoxy-6-(Trifluoromethyl)Pyridin-3-Yl)-N-(Thiazol-2-Yl)-3,4-Dihydro-2H-Benzo[B][1,4]Oxazine-7-Sulfonamide], the values for the IC50 in series [1], in series [2] and in series [3] were > 10000 nM, 800 nM and 68.5 nM, respectively.

For the compound `N#Cc1cc(C(F)(F)F)ccc1N1CCOc2cc(S(=O)(=O)Nc3nccs3)c(F)cc21` [Example 215, 4-(2-Cyano-4-(Trifluoromethyl)Phenyl)-6-Fluoro-N-(Thiazol-2-Yl)-3,4-Dihydro-2H-Benzo[B][1,4]Oxazine-7-Sulfonamide], the IC50 is 203 nM in series [1], 183 nM in series [2] and 9.86 nM in series [3].

As to `N#Cc1cc(C(F)(F)F)ccc1N1CCOc2c1ccc(S(=O)(=O)Nc1nccs1)c2F` [Example 216, 4-(2-Cyano-4-(Trifluoromethyl)Phenyl)-8-Fluoro-N-(Thiazol-2-Yl)-3,4-Dihydro-2H-Benzo[B][1,4]Oxazine-7-Sulfonamide], the figures for the IC50 in series [1], in series [2] and in series [3] were 5730 nM, 516 nM and 34 nM, respectively.

Consider `COc1cc(C#N)ccc1N1CCOc2cc(S(=O)(=O)Nc3nccs3)c(F)cc21` [Example 217, 4-(4-Cyano-2-Methoxyphenyl)-6-Fluoro-N-(Thiazol-2-Yl)-3,4-Dihydro-2H-Benzo[B][1,4]Oxazine-7-Sulfonamide], for which the IC50 amounted to 1310 nM in series [1], 207 nM in series [2] and 8 nM in series [3].

With `N#Cc1cc(C(F)(F)F)ccc1N1CCOc2cc(S(=O)(=O)Nc3nccs3)cc(F)c21` [Example 218, 4-(2-Cyano-4-(Trifluoromethyl)Phenyl)-5-Fluoro-N-(Thiazol-2-Yl)-3,4-Dihydro-2H-Benzo[B][1,4]Oxazine-7-Sulfonamide], the values for the IC50 in series [1], in series [2] and in series [3] were 385 nM, 1990 nM and 193 nM, respectively.

In the case of `COc1cc(C#N)ccc1CN1CCOc2cc(S(=O)(=O)Nc3nccs3)ccc21` [Example 219, 4-(4-Cyano-2-Methoxybenzyl)-N-(Thiazol-2-Yl)-3,4-Dihydro-2H-Benzo[B][1,4]Oxazine-7-Sulfonamide], the results for the IC50 in series [1] and in series [3] were > 10000 nM and 5190 nM, respectively. For the same compound, the inhibition at 4.9 µM in series [2] came to 26.2%.

`O=S(=O)(Nc1nccs1)c1ccc2c(c1)OCCN2Cc1ccccc1` [Example 220, 4-Benzyl-N-(Thiazol-2-Yl)-3,4-Dihydro-2H-Benzo[B][1,4]Oxazine-7-Sulfonamide]: the concentration for half-maximal inhibition (IC50) was > 10000 nM in series [1], 17200 nM in series [2] and 864 nM in series [3].

`Cc1onc(-c2ccccc2)c1CN1CCOc2cc(S(=O)(=O)Nc3nccs3)ccc21` [Example 221, 4-((5-Methyl-3-Phenylisoxazol-4-Yl)Methyl)-N-(Thiazol-2-Yl)-3,4-Dihydro-2H-Benzo[B][1,4]Oxazine-7-Sulfonamide]: the IC50 in series [1] is > 10000 nM; in series [2], 3030 nM; in series [3], 564 nM.

Regarding `O=S(=O)(Nc1nccs1)c1ccc2c(c1)OCCN2Cc1c[nH]c2cccnc12` [Example 222, 4-((1H-Pyrrolo[3,2-B]Pyridin-3-Yl)Methyl)-N-(Thiazol-2-Yl)-3,4-Dihydro-2H-Benzo[B][1,4]Oxazine-7-Sulfonamide], the IC50 in series [1] is > 10000 nM; in series [3], 3430 nM. Further, in series [2], the inhibition at 4.9 µM came to 33.8%.
